Experimental data as given in ChEMBL document CHEMBL1201862, “PubChem BioAssay data set” (2004).
The source made the active and inactive calls.

Experiments:
[1] = molecular target: Glyceraldehyde-3-phosphate dehydrogenase (Homo sapiens, UniProt P04406)
HT-1080 = assay: HT1080 cell viability loss – fluorescence readout (AID 620); assay type: functional, cell-based; settings: Homo sapiens
Cytochrome P450 2C19 = Cytochrome P450 2C19 (Homo sapiens, UniProt P33261); assay: Cytochrome panel assay with activity outcomes. Panel member name: p450-cyp2c19 Compounds with AC50 equal or less than 10 uM are considered active; assay type: functional; settings: read-out: AC50
[2] = molecular target: Luciferin 4-monooxygenase (Photinus pyralis, UniProt P08659); assay: Counter Screen for Luciferase-based Assay Positives. [Related pubchem assays: 620, 618, 411 ]
[3] = molecular target: T1, RNA-binding protein pos-1 (Caenorhabditis elegans, UniProt G5EF15); assay: disruptors of C. elegans POS-1 RNA interaction – biochemical, fluorescence polarization, dose response (AID 1964);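 further: purified POS-1 fused to maltose binding protein made in E. coli; potency of compounds blocking POS-1 binding to fluorescent RNA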
T1 sequence (G5EF15 whole entry): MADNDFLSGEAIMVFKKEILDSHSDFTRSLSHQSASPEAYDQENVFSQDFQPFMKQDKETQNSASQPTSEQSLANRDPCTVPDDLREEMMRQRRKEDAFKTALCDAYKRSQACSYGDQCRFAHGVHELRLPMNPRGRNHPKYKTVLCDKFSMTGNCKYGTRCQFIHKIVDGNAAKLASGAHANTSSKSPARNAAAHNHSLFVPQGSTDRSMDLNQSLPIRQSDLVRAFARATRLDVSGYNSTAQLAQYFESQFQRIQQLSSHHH

[4] = Counterscreen for IDE inhibitors: Luminescence-based cell-based high throughput dose response assay to identify compounds that are cytotoxic to HEK cells. [Related pubchem assays: 434962 (Primary screen (IDE inhibitors in singlicate)), 449730 (Counterscreen (Cytotoxicity in triplicate)), 435028 (Confirmation (IDE inhibitors in triplicate)) …; assay type: functional; settings: HEK293
[5] = molecular target: T2, Zinc finger protein mex-5 (Caenorhabditis elegans, UniProt Q9XUB2); assay: potency of MEX-5 RNA-binding blockers – biochemical, C. elegans, fluorescence polarization, dose response (AID 1960)
T2 sequence (Q9XUB2 whole entry): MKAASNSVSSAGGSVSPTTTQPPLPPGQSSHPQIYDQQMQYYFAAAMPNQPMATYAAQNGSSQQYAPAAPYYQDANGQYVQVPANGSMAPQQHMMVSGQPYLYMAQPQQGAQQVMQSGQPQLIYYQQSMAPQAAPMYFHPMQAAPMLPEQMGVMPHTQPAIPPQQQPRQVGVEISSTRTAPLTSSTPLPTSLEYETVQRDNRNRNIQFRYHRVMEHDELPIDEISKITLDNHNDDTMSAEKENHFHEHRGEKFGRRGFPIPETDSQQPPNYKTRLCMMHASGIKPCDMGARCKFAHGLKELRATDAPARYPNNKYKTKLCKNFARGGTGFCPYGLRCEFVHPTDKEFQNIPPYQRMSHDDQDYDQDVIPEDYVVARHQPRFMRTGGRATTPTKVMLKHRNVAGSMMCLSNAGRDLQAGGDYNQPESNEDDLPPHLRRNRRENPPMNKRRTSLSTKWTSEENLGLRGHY

Insulin-degrading enzyme = molecular target: T3, Insulin-degrading enzyme (Homo sapiens, UniProt P14735); assay: Dose Response: Fluorescence polarization-based cell-based high throughput dose response assay for inhibitors of insulin-degrading enzyme (IDE). [Related pubchem assays: 434962 (Primary screen (IDE inhibitors in singlicate)), 449730 (Counterscreen (Cytotoxicity in triplicate)), 435028 (Confirmation (IDE inhibitors in triplicate)), 434984 (Summary …; assay type: functional
T3 sequence (P14735 whole entry): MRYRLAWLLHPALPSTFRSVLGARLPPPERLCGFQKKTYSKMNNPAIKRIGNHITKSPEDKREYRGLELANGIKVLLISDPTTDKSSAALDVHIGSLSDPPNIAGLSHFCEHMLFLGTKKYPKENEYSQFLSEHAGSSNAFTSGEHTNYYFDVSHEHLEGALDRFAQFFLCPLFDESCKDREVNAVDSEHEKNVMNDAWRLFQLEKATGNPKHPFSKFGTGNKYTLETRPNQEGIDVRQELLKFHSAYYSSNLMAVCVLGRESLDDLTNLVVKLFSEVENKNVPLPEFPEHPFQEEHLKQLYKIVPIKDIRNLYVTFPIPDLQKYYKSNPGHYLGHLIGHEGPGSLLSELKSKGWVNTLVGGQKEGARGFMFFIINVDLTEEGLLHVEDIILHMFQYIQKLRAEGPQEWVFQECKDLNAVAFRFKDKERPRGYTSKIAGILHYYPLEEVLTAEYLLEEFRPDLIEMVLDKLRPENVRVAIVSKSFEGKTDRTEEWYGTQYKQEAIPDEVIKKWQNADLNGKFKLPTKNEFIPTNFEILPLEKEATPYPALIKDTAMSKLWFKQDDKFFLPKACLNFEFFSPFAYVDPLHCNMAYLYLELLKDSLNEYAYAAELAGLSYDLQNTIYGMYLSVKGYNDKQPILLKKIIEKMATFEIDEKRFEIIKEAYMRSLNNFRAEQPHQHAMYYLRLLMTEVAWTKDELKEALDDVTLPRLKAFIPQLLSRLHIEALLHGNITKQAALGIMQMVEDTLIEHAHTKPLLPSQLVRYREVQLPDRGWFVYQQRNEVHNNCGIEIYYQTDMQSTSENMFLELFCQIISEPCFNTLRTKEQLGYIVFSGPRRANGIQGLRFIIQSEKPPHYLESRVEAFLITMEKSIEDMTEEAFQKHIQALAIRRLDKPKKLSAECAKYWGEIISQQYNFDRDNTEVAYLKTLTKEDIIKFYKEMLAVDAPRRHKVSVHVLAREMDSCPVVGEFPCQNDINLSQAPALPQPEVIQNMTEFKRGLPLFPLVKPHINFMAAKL

Streptokinase A = molecular target: T4, Streptokinase A (Streptococcus pyogenes serotype M1, UniProt P10520); assay: viability-normalized secreted streptokinase activity reduction – plasminogen activation absorbance, OD405, dose response (AID 1914); assay type: functional, Streptococcus pyogenes M1 GAS;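 further: secreted streptokinase activity via plasminogen activation per viability signal from cell pellet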
T4 sequence (P10520 whole entry): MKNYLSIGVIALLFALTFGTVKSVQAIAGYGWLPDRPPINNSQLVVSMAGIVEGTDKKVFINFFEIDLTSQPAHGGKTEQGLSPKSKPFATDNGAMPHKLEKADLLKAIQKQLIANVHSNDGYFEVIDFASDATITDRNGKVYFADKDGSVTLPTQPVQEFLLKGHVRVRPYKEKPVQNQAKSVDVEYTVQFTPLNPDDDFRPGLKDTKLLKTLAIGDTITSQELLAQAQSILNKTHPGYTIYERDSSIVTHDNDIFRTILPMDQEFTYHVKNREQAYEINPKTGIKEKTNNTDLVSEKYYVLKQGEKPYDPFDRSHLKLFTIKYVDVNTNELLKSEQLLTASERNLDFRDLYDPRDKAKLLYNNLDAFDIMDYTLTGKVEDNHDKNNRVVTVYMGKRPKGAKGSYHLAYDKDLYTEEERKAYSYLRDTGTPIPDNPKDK

Streptococcus = assay: GAS UMAA2166 growth inhibition – luminescence, BacTiterGlo, counter-screen for streptokinase expression inhibitor project, dose response (AID 1915); assay type: functional, organism-based;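 further: potency for reduction of bacterial viability or growth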
[6] = molecular target: Eukaryotic translation initiation factor 4E (Mus musculus, UniProt P63073); assay: blockers of eIF4G binding by eIF4E – biochemical, TR-FRET, dose response (AID 855); assay type: functional;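 further: potency for disrupting eIF4E binding to eIF4GI seen as loss of FRET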
Kallikrein-7 = Kallikrein-7 (Homo sapiens, UniProt P49862); assay: Fluorescence Intensity-based biochemical primary high throughput dose response assay to identify activators of kallikrein-7 (K7) zymogen.
[7] = tested on: Streptococcus sp. 'group A'; assay: Streptococcus pyogenes SK(-)GAS viability under kanamycin – luminescence, BacTiterGlo, confirmation, counter-screen for streptokinase expression inhibitor project, dose response (AID 1900); assay type: functional, organism-based
Prothrombin = Prothrombin (Homo sapiens, UniProt P00734); assay: Thrombin 1536 HTS Dose Response Confirmation. [Related pubchem assays: 1046 (Thrombin 1536 HTS; hits were confirmed in this assay)]; assay type: functional
[8] = molecular target: Voltage-gated inwardly rectifying potassium channel KCNH2 (Homo sapiens, UniProt Q12809); assay: concentration-dependent hERG rescue from blockers – cell-based, thallium flux, dose response (AID 2121); assay type: ADME
[9] = OVCAR-3 cell viability loss – plate reader, dry powder samples, PAX8 inhibitor project, dose response (AID 743044); assay type: functional, cell-based
[10] = P. falciparum Dd2 growth inhibitors, dose response, SYBR Green, cherry-picked samples (AID 1159567); assay type: functional, cell-based
Paired box protein Pax-8 = Paired box protein Pax-8 (Homo sapiens, UniProt Q06710); assay: PAX8 transcriptional activity inhibition in RMG-I – RMG-I cells, luciferase, cherry-pick, dose response (AID 687027); assay type: functional, cell-based;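 further: luciferase reporter driven by Pax8 target thyroperoxidase promoter measured by SteadyGlo luminescence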
[11] = growth inhibition of PfATP4-mutant resistant parasites – NITD609-resistant line, SYBR Green, dry powder, dose response (AID 1159571); assay type: functional, cell-based;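 further: parasites synchronized at ring stage by sorbitol before testing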
[12] = molecular target: Disintegrin and metalloproteinase domain-containing protein 17 (Homo sapiens, UniProt P78536); assay: inhibition of ADAM17 substrate cleavage – biochemical, quenched FRET substrate, counter-screen for ADAM10 exosite inhibitor project, dose response (AID 743253)
[13] = OVCAR8 cell viability loss – plate reader, dry powder samples, PAX8 project, dose response (AID 743197); assay type: functional, cell-based; settings: OVCAR-8
[14] = growth inhibition of yeast DHODH-expressing 3D7 parasites – SYBR Green, dry powder samples, dose response (AID 1159570); assay type: functional, cell-based;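 further: parasite growth measured after 72 hours of compound exposure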
HEK293 [15] = assay: cells; settings: Homo sapiens
[16] = IGROV1 cell killing – plate reader, dry powder samples, PAX8 inhibitor project, dose response (AID 743043); assay type: functional, cell-based; settings: IGROV-1
[17] = toxicity to human HepG2 hepatoma cells – cell-based, plate reader, dry powder samples, cytotoxicity control, dose response (AID 1159569); assay type: functional;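 further: inhibitor potency with signal falling toward the positive control level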
[18] = Dd2 malaria parasite growth inhibition potency – SYBR Green, dry powder samples, dose response (AID 1159566); assay type: functional, cell-based;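 further: potency for growth inhibition with lower SYBR green DNA signal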
[19] = potency of ADAM10 substrate cleavage blockers – biochemical, QFRET, dose response (AID 743254);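 further: ADAM10 enzyme with the DM2 quenched FRET peptide as substrate; EDANS fluorescence gain as the protease cuts the substrate; inhibitor potency against ADAM10 proteolytic activity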
HEK293 [20] = assay: cells; settings: Homo sapiens; remark: listed apart in the source
[21] = Reduced DLD-1 viability, concentration-response, CellTiter-Glo luminescence (AID 1117352); assay type: functional
[22] = cytotoxicity toward HT-29 cells – cell-based, CellTiter-Glo luminescence, IC50, dose response (AID 1117330); assay type: functional
[23] = SNU-C1 cell viability reduction, dose response, CellTiter-Glo luminescence (AID 1117323); assay type: functional, cell-based
[24] = RKO cell viability reduction, dose response, CellTiter-Glo luminescence (AID 1117322); assay type: functional
[25] = cytotoxicity toward HCT116 cells – cell-based, CellTiter-Glo luminescence, IC50, dose response (AID 1117332); assay type: functional; settings: HCT-116
[26] = CellTiter-Glo luminescence survival assay, SW480 colon tumor line, concentration-response curve, half-maximal inhibitory concentration (AID 1117338); assay type: functional
[27] = cytotoxicity toward Colo320 cells – cell-based, CellTiter-Glo luminescence, IC50, dose response (AID 1117334); assay type: functional; settings: COLO 320

Kallikrein-7, sequence (P49862 whole entry): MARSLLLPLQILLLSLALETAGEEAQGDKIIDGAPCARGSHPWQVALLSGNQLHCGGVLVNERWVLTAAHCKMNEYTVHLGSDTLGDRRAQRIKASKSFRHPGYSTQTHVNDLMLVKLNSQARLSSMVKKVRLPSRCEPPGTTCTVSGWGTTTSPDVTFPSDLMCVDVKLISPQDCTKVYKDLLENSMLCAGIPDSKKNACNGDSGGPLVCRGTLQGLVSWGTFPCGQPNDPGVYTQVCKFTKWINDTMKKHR
Cytochrome P450 2C19, sequence (P33261 whole entry): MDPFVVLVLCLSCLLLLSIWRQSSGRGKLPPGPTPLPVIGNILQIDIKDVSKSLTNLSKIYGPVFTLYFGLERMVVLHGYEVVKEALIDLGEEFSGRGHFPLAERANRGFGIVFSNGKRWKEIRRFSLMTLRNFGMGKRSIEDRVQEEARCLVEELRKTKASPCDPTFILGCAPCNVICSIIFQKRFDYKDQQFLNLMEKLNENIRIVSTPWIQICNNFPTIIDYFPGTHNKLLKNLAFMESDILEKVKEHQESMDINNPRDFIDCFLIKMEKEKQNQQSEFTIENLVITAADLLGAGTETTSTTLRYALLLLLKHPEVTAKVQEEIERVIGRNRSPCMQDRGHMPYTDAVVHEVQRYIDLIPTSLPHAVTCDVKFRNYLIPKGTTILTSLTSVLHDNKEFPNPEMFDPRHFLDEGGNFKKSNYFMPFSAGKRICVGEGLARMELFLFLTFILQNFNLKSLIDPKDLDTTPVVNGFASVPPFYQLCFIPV
Luciferin 4-monooxygenase, sequence (P08659 whole entry, the tested form may be a part): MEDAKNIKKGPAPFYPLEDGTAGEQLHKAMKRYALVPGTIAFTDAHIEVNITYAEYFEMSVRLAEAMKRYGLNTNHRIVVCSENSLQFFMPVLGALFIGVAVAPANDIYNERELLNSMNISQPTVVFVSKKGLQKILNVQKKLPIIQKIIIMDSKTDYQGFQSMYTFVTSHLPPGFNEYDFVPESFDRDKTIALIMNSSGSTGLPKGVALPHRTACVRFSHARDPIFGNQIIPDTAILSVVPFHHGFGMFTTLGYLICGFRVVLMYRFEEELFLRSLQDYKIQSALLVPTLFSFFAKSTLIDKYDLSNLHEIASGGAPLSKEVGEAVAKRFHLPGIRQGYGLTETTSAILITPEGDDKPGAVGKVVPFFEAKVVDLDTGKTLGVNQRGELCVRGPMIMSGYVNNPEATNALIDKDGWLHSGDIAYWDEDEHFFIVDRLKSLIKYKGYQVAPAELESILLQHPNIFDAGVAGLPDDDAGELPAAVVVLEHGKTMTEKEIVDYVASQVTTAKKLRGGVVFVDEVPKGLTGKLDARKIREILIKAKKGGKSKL
Paired box protein Pax-8, sequence (Q06710 whole entry): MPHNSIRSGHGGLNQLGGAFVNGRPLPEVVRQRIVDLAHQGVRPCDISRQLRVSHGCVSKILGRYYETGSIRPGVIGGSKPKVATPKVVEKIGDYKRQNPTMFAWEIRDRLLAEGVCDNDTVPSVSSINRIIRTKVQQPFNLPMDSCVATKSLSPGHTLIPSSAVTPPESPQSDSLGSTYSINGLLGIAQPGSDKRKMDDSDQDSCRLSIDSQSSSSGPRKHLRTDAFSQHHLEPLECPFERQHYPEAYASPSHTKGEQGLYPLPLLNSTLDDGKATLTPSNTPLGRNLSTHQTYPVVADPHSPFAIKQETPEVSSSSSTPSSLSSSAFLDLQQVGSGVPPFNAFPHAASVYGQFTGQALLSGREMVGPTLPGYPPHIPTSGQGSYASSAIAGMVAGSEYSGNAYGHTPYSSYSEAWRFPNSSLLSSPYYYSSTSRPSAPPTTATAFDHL
Voltage-gated inwardly rectifying potassium channel KCNH2, sequence (Q12809 whole entry): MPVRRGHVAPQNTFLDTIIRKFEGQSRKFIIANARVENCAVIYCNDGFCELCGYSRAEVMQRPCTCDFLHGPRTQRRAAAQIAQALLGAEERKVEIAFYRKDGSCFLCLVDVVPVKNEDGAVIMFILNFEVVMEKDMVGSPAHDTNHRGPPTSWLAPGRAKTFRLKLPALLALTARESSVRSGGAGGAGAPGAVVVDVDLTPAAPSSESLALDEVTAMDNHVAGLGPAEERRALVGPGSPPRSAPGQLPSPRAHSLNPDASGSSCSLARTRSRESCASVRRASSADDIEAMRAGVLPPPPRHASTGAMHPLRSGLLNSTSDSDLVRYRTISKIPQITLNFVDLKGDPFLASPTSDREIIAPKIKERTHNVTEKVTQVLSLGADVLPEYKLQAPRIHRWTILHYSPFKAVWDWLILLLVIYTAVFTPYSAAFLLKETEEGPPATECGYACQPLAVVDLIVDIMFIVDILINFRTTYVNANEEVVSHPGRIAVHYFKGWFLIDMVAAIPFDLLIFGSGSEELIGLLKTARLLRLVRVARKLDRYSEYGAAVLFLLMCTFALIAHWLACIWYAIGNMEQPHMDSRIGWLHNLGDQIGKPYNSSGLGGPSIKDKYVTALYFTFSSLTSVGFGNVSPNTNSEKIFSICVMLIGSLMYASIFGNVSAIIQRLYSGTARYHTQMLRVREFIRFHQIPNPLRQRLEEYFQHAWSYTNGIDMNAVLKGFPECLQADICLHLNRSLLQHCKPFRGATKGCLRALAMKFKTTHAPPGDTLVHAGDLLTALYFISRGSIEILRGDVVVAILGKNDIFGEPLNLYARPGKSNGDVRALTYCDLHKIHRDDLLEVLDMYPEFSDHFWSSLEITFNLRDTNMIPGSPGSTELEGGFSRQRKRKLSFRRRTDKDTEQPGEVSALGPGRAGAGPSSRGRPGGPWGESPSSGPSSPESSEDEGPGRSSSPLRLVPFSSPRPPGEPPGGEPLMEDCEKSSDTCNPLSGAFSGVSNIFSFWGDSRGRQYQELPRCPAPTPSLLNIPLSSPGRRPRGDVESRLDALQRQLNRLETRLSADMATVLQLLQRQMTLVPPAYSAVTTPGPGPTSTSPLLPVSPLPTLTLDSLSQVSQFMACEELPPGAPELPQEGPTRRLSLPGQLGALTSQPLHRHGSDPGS
Glyceraldehyde-3-phosphate dehydrogenase, sequence (P04406 whole entry): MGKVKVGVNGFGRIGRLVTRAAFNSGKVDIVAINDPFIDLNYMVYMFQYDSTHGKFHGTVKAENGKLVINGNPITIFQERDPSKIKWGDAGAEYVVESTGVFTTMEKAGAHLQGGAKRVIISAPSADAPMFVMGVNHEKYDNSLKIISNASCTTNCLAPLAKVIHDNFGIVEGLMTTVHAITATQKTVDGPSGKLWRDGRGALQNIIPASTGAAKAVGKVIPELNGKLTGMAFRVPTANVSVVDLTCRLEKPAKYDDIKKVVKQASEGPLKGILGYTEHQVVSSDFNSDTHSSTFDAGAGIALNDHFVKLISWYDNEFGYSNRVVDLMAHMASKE
Disintegrin and metalloproteinase domain-containing protein 17, sequence (P78536 whole entry, the tested form may be a part): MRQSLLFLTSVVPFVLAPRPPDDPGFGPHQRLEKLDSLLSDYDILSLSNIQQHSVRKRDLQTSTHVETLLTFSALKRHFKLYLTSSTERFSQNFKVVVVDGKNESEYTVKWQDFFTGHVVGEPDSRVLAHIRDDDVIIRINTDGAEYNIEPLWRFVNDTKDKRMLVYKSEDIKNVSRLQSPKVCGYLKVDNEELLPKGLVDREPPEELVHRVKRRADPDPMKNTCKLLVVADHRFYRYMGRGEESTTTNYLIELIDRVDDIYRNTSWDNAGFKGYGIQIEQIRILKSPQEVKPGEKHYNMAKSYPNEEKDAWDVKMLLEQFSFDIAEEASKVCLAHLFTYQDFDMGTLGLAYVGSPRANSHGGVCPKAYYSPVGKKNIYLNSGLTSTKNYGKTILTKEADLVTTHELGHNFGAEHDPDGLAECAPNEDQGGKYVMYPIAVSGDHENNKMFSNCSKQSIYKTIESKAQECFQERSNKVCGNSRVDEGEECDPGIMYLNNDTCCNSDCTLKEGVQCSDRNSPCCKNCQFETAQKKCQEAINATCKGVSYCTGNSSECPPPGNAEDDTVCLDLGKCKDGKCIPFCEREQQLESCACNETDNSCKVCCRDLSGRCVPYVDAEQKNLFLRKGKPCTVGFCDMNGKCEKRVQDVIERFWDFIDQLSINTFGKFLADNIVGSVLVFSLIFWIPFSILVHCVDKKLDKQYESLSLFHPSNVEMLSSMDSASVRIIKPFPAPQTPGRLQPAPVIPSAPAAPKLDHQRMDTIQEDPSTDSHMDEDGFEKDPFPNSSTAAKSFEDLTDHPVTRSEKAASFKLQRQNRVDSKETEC
Eukaryotic translation initiation factor 4E, sequence (P63073 whole entry): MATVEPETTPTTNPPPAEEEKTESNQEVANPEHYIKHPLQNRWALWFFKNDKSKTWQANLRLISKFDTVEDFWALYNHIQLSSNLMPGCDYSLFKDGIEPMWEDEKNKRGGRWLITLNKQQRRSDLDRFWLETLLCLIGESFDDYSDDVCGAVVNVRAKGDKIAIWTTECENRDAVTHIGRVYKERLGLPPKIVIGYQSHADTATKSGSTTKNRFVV

O=C(O)c1cc(-c2ccc(/C=N/n3cnnc3)o2)ccc1O
IC50 [1]: > 100 µM (not active)

Cc1oncc1C(=O)Nc1ccc(C(F)(F)F)cc1 [LEFLUNOMIDE]
EC50 (HT-1080): > 50 µM (not active)
AC50 (Cytochrome P450 2C19): 15.8 µM (inconclusive)
EC50 [2]: 0.84 µM (active)

COc1ccc(-n2c(C)cc(/C=C3\SC(=S)N(Cc4ccco4)C3=O)c2C)cc1
EC50 [3]: > 300 µM (not active)
IC50 [4]: 38 µM (not active)
EC50 [5]: 121 µM (active)
IC50 (Insulin-degrading enzyme): > 55.9 µM (not active)

Nc1ccc2[nH]c(-c3cc(Cl)c(N)c(Cl)c3)nc2c1
EC50 (Streptokinase A): > 150 µM (not active)
EC50 (Streptococcus): > 150 µM (not active)
IC50 [6]: > 64 µM (inactive)
EC50 (Kallikrein-7): > 69.5 µM (inactive)
EC50 [7]: 42.8 µM (active)

CN(C)S(=O)(=O)c1ccc(C(=O)Oc2cc(O)nc3ccccc23)cc1
IC50 (Prothrombin): 0.812 µM (active)

COC(=O)c1sccc1NS(=O)(=O)c1ccc(F)cc1F
EC50 [8]: 2.94 µM (active)

C[C@H](CO)N1C[C@H](C)[C@H](CN(C)S(=O)(=O)c2ccc(Cl)cc2)OCc2ccccc2-c2c(n(C)c3ccccc23)C1=O
AC50 [9]: 26.2 µM (active)
AC50 [10]: < 0.35 µM (active)
AC50 (Paired box protein Pax-8): 4.86 µM (active)
AC50 [11]: 0.129 µM (active)
IC50 [12]: > 69.5 µM (inactive)
AC50 [13]: 41.6 µM (active)
AC50 [14]: 0.193 µM (active)
EC50 (HEK293 [15]): > 59.7 µM (inactive)
AC50 [16]: 62.3 µM (active)
AC50 [17]: 35.5 µM (active)
AC50 [18]: 0.0741 µM (active)
IC50 [19]: 9.56 µM (active)
EC50 (HEK293 [20]): > 59.7 µM (inactive)

NC(=O)N/N=C/c1ccc([N+](=O)[O-])o1 [NITROFURAZONE]
IC50 [21]: > 20 µM (inactive)
IC50 [22]: > 20 µM (inactive)
IC50 [23]: > 20 µM (inactive)
IC50 [24]: > 20 µM (inactive)
IC50 [25]: > 20 µM (inactive)
IC50 [26]: > 20 µM (inactive)
IC50 [27]: > 20 µM (inactive)

CCc1ccccc1N1C(=O)CC(=O)NC1=O
IC50 (Prothrombin): > 50 µM (not active)
